In US12492422B2, “Ex vivo protease activity detection for disease detection/diagnostic, staging, monitoring and treatment” (Sunbird Bio, Inc., priority 2020, dated 2025):
Square brackets hold non-standard residues; d marks the D form. Primed or numbered codes have the meaning given here. Ends that are not written are not given here. CPQ2″ = quencher on the Lys side chain; FAM = fluorescent reporter; CPQ2(4) = quencher on Lys; PEG2″ = PEG2 spacer; CPQ2 = quencher

Assays:
[1] = system: proteases cleaving Probe #102 in plasma (cathepsin L); experiment: Inhibitor profiling of Probe #102 cleavage in NASH and healthy plasma; format: biochemical, mice; conditions: for effect of inhibitor on Probe #102 signal: NASH or healthy samples
Method: For this experiment, all plasma samples were prepared individually and diluted 1/10e in PBS with inhibitor added directly to the samples. Inhibitor was prepared at 15× concentration to final. Substrates were diluted in DI water at 18 uM, such that the final concentration on the plate would be 6 uM. All samples were prepared such that their last dilution on the plate would not affect the desired final concentration. 10 ul of each individual sample was pipetted into their corresponding wells, and the plate was then spun down in the centrifuge at 1500 RPM for 30 seconds to coat the bottom of each well with the sample. 5 ul of the 18 uM substrate solution was pipetted into each well being used on a 384 well plate, and then the plate was spun down in the centrifuge at 1500 rpm for 30 seconds. The plate was placed immediately in the plate reader at 37° C. for a 30-minute-long fluorescence kinetic read at 485/535 extended gain.
To assess the proteolytic cleavage pattern of Probe #102, samples were tested using a pool of broad inhibitors for serine, cysteine, threonine, MMP and aspartic protease family members (broad inhibitor) to assess general protease activity, AEBSF for serine proteases, E64 for cysteine proteases, CTSi for broad cathepsin inhibition of cathepsins L, S, K and B, or specific inhibitors for cathepsin K (L00625), for cathepsin L (SID) or cathepsin B (CA074).

furin = furin (Homo sapiens, UniProt P09958); conditions: solid-state fluorescence of precipitates after reaction of HPQF with furin; cited from earlier work
furin, sequence (P09958 108-794, species assumed): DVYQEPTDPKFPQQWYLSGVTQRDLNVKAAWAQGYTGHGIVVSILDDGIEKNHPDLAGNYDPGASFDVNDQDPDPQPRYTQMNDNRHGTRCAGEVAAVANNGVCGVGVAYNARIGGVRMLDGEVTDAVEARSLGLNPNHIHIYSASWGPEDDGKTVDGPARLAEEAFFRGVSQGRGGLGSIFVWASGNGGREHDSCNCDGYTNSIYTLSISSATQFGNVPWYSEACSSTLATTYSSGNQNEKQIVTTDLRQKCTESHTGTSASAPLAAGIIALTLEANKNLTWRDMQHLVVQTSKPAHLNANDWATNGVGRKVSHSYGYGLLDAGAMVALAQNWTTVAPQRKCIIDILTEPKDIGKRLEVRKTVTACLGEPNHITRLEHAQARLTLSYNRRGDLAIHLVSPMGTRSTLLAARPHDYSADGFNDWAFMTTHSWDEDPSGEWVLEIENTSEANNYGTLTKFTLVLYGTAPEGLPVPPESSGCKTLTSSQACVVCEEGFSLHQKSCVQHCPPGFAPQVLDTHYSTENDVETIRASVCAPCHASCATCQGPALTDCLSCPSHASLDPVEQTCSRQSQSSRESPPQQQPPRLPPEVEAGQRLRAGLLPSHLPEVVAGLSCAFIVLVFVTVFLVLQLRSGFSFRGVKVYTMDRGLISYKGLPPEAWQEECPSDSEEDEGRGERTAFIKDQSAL

[2] = system: carboxylesterase 1, phospholipase A2 and lipoprotein lipase; experiment: Resorufin oleate substrate with recombinant enzymes spiked in human plasma; format: biochemical
caspase activity = experiment: Ex vivo probe cleavage in plasma of Jo2 fulminant hepatitis model; format: biochemical, mouse; conditions: plasma 3 hours after Jo2 injection
Method: Fulminant hepatitis is induced after injection intraperitoneal of monoclonal antibody anti-CD95 (Jo2, BD biosciences, 4 ug/animal), and mouse plasma samples were collected 3 hours after Jo2 injection.
The comparison with mass spectrometry data also aligns and confirms high concordance with the ex vivo approach, which is reassuring to confirm the existence of a biologically relevant signal.

COVID-related proteases [3] = experiment: Ex vivo probe cleavage in K2EDTA and Lithium Heparin plasma, COVID vs healthy; format: biochemical; conditions: K2EDTA and LiHeparin plasma cohorts
[4] = system: cathepsin and/or MMP protease activities; experiment: Ex vivo probe cleavage in plasma: healthy, NASH regression, NASH progression; format: biochemical, mice; conditions: K2EDTA plasma at 20 weeks
Excerpt: Plasma samples were collected from all animals at 20 weeks.
The probes showing the most differentiation in NASH were linked to cathepsin and/or MMP protease activities.

COVID-related proteases [5] = experiment: Ex vivo probe cleavage in COVID positive and negative swab samples; format: biochemical
Granzyme B = target: T1, Granzyme B (Homo sapiens, UniProt P10144); experiment: Inhibition experiments on Probe #647 signal in swabs (Granzyme B, caspases); format: biochemical; conditions: healthy vs COVID samples
T1 construct: from tissue; host or cells: swab samples
T1 sequence (P10144 21-247): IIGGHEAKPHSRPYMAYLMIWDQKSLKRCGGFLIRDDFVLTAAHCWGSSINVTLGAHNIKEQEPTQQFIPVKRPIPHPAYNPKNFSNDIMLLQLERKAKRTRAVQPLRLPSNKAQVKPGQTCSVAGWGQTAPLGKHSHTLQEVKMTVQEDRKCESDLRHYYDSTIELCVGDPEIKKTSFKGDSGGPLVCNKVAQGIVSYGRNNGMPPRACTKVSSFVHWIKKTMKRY

NCCc1ccc(S(=O)(=O)F)cc1 [AEBSF]
decrease of RFU signal in NASH samples ([1]; Probe #102 6 uM, NASH plasma diluted in PBS, 30-minute kinetic read at 37° C.): 65% | decrease of RFU signal in healthy samples ([1]; Probe #102 6 uM, healthy plasma diluted in PBS, 30-minute kinetic read at 37° C.): 60%

CCCNC(=O)[C@H]1O[C@@H]1C(=O)N[C@H](C(=O)N1CCC[C@H]1C(=O)O)[C@@H](C)CC [CA074]
effect of inhibitor on Probe #102 signal [1]: did not significantly decrease signal

O=c1[nH]c(-c2cc(Cl)ccc2O)nc2ccc(Cl)cc12 [Cl-HPQ]
fluorescence enhancement (furin): more than 60 fold

CC(C)C[C@H](NC(=O)[C@H]1O[C@@H]1C(=O)O)C(=O)NCCCCN=C(N)N [Probe E64]
effect of inhibitor on Probe #102 signal [1]: decreased NASH signal significantly

CN1CCN(c2nc(-c3ccc(C(=O)NC4(C(=O)NCC#N)CCCCC4)cc3)cs2)CC1 [Probe L006235]
effect of inhibitor on Probe #102 signal [1]: did not significantly decrease signal

CCCC(=O)O [butyrate]
suitability as substrate for enzyme detection [2]: promising for detection of broad range of enzymes

Probe #8: Caspase centric probe (GVDVADGK; not fully specified; 5-FAM, CPQ2 quencher, PEG2, D-Lys-D-Lys-GC; MOD_RES (8)..(8) Lys modified with a CPQ2 quencher)
contrast in Jo2 hepatitis model (caspase activity): show contrast that is specific and sensitive to the Jo2 model

Probe #12: Caspase centric probe (GDEVDGK; not fully specified; 5-FAM, CPQ2 quencher, PEG2, D-Lys-D-Lys-GC; MOD_RES (7)..(7) Lys modified with a CPQ2 quencher)
contrast in Jo2 hepatitis model (caspase activity): show contrast that is specific and sensitive to the Jo2 model

Probe #18: Neutrophil elastase substrate (GAAPVGK(CPQ2); also: 5-FAM, position not given here, PEG2, position not given here)
differential cleavage between COVID and healthy samples (COVID-related proteases [3]): demonstrated contrast in both sets

Probe #84: Furin substrate (GRVKRGLAGK(CPQ2); also: 5-FAM, position not given here, PEG2, position not given here)
differential cleavage between COVID and healthy samples (COVID-related proteases [3]): demonstrated contrast in both sets

Probe #96: probe of Table 1 ({FAM}-GRPLALWESQGK(CPQ2(4))[PEG2″][dK]GC; not fully specified; printed as (FAM)-GRPLALWESQG-K(CPQ2)-PEG2-k-GC; also: FAM, place not given here, D-Lys-GC, place not given here)
differentiation among healthy, regression and NASH samples [4]: can differentiate

Probe #102: a CTSL sensing probe; fluorescent reporter and quencher ({FAM}-GKPILFFRLKGK(CPQ2″)[PEG2″][dK][dK]GC; also: fluorescent reporter and quencher, places not given here)
differentiation among healthy, regression and NASH samples [4]: can differentiate | protease whose activity the probe responds to ([1]; individual cathepsin inhibitors, FIG. 30D-F): specifically responds to the activity of cathepsin L (CTSL)

Probe #409: the SARS CoV2 coronavirus substrate (GTSAVLQSGFRKGK(CPQ2); also: 5-FAM, position not given here, PEG2, position not given here)
differential cleavage between COVID and healthy samples (COVID-related proteases [3]): modest contrast in the K2 EDTA samples

Probe #428: probe of Table 1 ({FAM}-GDRRKKLTQGK(CPQ2(4))[PEG2″][dK][dK]GC; not fully specified; printed as (FAM)-GDRRKKLTQG-K(CPQ2)-(PEG2)-DLys-DLys-GC; also: FAM, place not given here, D-Lys-D-Lys-GC, place not given here)
differentiation among healthy, regression and NASH samples [4]: can differentiate

Probe #462: MMP8 substrate (GKKAKRNALGK(CPQ2); also: FAM, position not given here, PEG2, position not given here)
differential cleavage between COVID and healthy samples (COVID-related proteases [3]): demonstrated contrast in both sets

Probe #492: probe of Table 1; differentiates NASH in mouse plasma ({FAM}-GQRANSIRVTWGK(CPQ2(4))[PEG2″][dK][dK]GC; not fully specified; printed as (FAM)-GQRANSIRVTWG-K(CPQ2)-(PEG2)-DLys-DLys-GC; also: FAM, place not given here, D-Lys-D-Lys-GC, place not given here)
differentiation among healthy, regression and NASH samples [4]: can differentiate

Probe #520: probe of Table 1 (GKPISLISSGK; not fully specified; 5FAM, CPQ2 quencher, PEG2-GC; MOD_RES (11)..(11) Lys modified with a CPQ2 quencher)
differentiation among healthy, regression and NASH samples [4]: can differentiate

Probe #647: Caspase centric probe; signal measures Granzyme B activity (GAIEPDSGGK(CPQ2); also: 5FAM, position not given here, PEG2, position not given here, D-Lys-D-Lys-GC-NH2, position not given here)
active samples among COVID+ (COVID-related proteases [5]; adjusted RFU across timepoints): 7 samples | active samples among COVID− (COVID-related proteases [5]; adjusted RFU across timepoints): 1 sample | differentiation between COVID+ and COVID− samples (COVID-related proteases [5]; swab samples in saline): key differentiator | differentiation among healthy, regression and NASH samples [4]: can differentiate | contrast in Jo2 hepatitis model (caspase activity): show contrast that is specific and sensitive to the Jo2 model | protease measured by probe signal (Granzyme B): measures the activity of protease Granzyme B

Resorufin oleate
suitability as substrate for enzyme detection [2]: promising for detection of broad range of enzymes
